Results: patent US20250313575A1, “MACROCYCLES AS LRRK2 INHIBITORS, PHARMACEUTICAL COMPOSITIONS, AND USES THEREOF” (Merck Sharp & Dohme LLC, priority 2022, published 2025)

Molecular target: GST-tagged truncated human mutant G2019S LRRK2 (Homo sapiens (Human), UniProt Q5S007, G2019S)
Test: LRRK2 G2019S Km ATP LanthaScreen assay
Assay type: biochemical
Conditions: G2019S LRRK2, 134 μM ATP (Km ATP), LRRKtide substrate; for IC50: read-out: LRRK2 pIC50 (converted)
Description: Unless otherwise noted, all reactions are magnetically allowed to stir, diethyl ether used in the experiments described below is Fisher ACS certified material stabilized with BHT, and “concentrated” and/or “solvent removed under reduced pressure” means evaporating the solvent from a solution or mixture using a rotary evaporator or vacuum pump. Unless otherwise noted, flash chromatography is carried out on a Teledyne Isco (Lincoln, NE), Analogix (Burlington, WI), or Biotage (Stockholm, SWE) automated chromatography system using a commercially available cartridge as the column. Columns may be purchased from Teledyne Isco, Analogix, Biotage, Varian (Palo Alto, CA), or Supelco (Bellefonte, PA) and are usually filled with silica gel as the stationary phase. Reverse phase prep-HPLC conditions, where used, can be found at the end of each experimental section. Aqueous solutions were concentrated on a Genevac (Ipswich, ENG) or by freeze-drying/lyophilization. Unless otherwise noted, all LRRK2 pIC50 data presented in tables refers to the LRRK2 G2019S Km ATP LanthaScreen™ assay (Life Technologies Corp., Carlsbad, CA) that is described in the Biological Assay section.
The LRRK2 kinase activity reported herein as IC50 values was determined with LanthaScreen™ technology from Life Technologies Corporation (Carlsbad, CA) using GST-tagged truncated human mutant G2019S LRRK2 in the presence of the fluorescein-labeled peptide substrate LRRKtide, also from Life Technologies. The data presented for the […] depending on the specific conditions and reagents used. Assays were performed in the presence of 134 μM ATP (Km ATP). Upon completion, the assay was stopped and phosphorylated substrate detected with a terbium (Tb)-labeled anti-pERM antibody (cat. no. PV4898). The compound dose response was prepared by diluting a 10 mM stock of compound to a maximum concentration of 9.99 μM in 100% dimethylsulfoxide followed by custom fold serial dilution in dimethylsulfoxide nine times. Twenty nanoliters of each dilution was spotted via a Labcyte Echo onto a 384-well black-sided plate (Corning 3575) followed by 15 μl of a 1.25 nM enzyme solution in 1× assay buffer (50 mM Tris pH 8.5, 10 mM MgCl2, 0.01% Brij-35, 1 mM EGTA, 2 mM dithiothreitol, 0.05 mM sodium orthovanadate). Following a 15-minute incubation at room temperature, the kinase reaction was started with the addition of 5 μl of 400 nM fluorescein-labeled LRRKtide peptide substrate and 134 μM ATP solution in 1× assay buffer. The reaction was allowed to progress at ambient temperature for 90 minutes. The reaction was then stopped by the addition of 20 μl of TR-FRET Dilution Buffer (Life Technologies, Carlsbad, CA) containing 2 nM Tb-labeled anti-phospho LRRKtide antibody and 10 mM EDTA (Life Technologies, Carlsbad, CA). After an incubation of 1 h at room temperature, the plate was read on an EnVision multimode plate reader (Perkin Elmer, Waltham, MA) with an excitation wavelength of 337 nm (Laser) and a reading emission at both 520 and 495 nm. Compound IC50s were interpolated from nonlinear regression best fits of the log of the final compound concentration, plotted as a function of the 520/495-nm emission ratio using Activity base. Abase uses a 4 parameter (4P) logistic fit based on the Levenberg-Marquardt algorithm.

Sequence of GST-tagged truncated human mutant G2019S LRRK2 (Q5S007 970-2527 G2019S): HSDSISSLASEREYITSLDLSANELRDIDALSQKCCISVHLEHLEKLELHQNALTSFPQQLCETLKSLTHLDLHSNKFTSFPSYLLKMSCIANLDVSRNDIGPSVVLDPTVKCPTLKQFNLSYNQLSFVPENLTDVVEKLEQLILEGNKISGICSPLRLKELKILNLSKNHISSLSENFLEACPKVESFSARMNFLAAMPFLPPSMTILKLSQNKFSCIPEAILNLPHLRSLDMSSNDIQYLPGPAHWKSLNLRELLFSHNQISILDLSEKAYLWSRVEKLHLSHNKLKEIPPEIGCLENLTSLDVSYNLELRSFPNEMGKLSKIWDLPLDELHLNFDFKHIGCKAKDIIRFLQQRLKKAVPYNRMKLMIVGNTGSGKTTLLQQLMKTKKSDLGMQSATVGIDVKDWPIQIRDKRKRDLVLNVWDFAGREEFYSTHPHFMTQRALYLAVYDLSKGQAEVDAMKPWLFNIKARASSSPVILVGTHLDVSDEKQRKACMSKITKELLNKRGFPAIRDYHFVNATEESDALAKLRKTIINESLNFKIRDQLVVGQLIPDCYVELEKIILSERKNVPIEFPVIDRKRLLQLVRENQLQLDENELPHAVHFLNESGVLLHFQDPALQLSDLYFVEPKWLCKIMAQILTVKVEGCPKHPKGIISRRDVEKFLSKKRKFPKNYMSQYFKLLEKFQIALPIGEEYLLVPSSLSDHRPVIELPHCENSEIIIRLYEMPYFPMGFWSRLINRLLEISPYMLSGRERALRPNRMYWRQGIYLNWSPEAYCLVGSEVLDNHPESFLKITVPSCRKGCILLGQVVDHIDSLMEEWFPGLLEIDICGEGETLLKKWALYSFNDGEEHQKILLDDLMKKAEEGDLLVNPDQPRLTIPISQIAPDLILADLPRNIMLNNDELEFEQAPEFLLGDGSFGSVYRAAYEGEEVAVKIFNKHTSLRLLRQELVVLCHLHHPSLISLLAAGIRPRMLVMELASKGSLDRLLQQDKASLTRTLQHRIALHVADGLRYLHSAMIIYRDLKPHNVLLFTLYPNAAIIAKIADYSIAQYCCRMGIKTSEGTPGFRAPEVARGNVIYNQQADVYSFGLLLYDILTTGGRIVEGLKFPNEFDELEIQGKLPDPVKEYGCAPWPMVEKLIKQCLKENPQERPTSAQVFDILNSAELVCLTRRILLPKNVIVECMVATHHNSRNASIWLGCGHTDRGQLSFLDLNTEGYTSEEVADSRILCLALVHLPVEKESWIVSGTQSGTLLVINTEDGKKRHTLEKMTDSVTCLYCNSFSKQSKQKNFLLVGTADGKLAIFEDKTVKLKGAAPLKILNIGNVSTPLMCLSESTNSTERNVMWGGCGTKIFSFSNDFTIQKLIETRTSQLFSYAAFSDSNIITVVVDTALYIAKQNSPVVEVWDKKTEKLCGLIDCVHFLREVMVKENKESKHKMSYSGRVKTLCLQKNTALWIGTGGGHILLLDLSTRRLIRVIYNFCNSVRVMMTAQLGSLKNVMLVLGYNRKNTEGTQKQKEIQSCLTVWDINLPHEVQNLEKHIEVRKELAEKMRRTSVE

Row | Molecule | LRRK2 pIC50 | IC50
1 | CCOC(=O)C(C)(C)n1nc(C(C)C)c2c1OCC[C@@H](C)Nc1nc(ncc1C(F)(F)F)N2 [Ex-1.12, ethyl (R)-2-(3-isopropyl-11-methyl-8-(trifluoromethyl)-10,11,12,13-tetrahydro-5,9-(azeno)pyrazolo[3,4-b][1]oxa[4,6,10]triazacyclotridecin-1(4H)-yl)-2-methylpropanoate] | <5.00 | 
2 | C[C@@H]1CCOc2cn(C)nc2Nc2ncc(Cl)c(n2)N1 [Ex-18.1, (R)-10-chloro-2,7-dimethyl-2,5,6,7,8,14-hexahydro-9,13-(azeno)pyrazolo[4,3-b][1]oxa[4,6,10]triazacyclotridecine] | 7.94 | 
3 | CC(C)n1nc(C2C[C@@H]2C#N)c2c1Nc1ncc(C(F)(F)F)c(n1)N[C@@H]1COC[C@H]1CO2 (single isomer, unassigned) [Ex-2.44, (1S,2S)- or (1R,2R)-2-((10aS,13aS)-3-isopropyl-8-(trifluoromethyl)-3,4,10a,11,13a,14-hexahydro-10H,13H-5,9-(azeno)furo[3,4-k]pyrazolo[4,3-b][1]oxa[4,6,10]triazacyclotridecin-1-yl)cyclopropane-1-carbonitrile] | 8.80 | 
4 | Cc1nn(C2CCC2)c2c1OC[C@H]1CC(F)(F)C[C@@H]1Nc1nc(ncc1C(F)(F)F)N2 [Ex-4.1, 3-Cyclobutyl-12,12-difluoro-1-methyl-8-(trifluoromethyl)-3,4,10a,11,12,13,13a,14-octahydro-10H-5,9-(azeno)cyclopenta[k]pyrazolo[4,3-b][1]oxa[4,6,10]triazacyclotridecine] | 6.25 | 
5 | CC(C)(O)Cn1nc(C2CC2)c2c1OC[C@@H]1CC[C@H]1Nc1nc(ncc1C(F)(F)F)N2 [Ex-1.21, 1-((10aR,12aR)-3-cyclopropyl-8-(trifluoromethyl)-10,10a,11,12,12a,13-hexahydro-5,9-(azeno)cyclobuta[k]pyrazolo[3,4-b][1]oxa[4,6,10]triazacyclotridecin-1(4H)-yl)-2-methylpropan-2-ol] | >10.09 | 
6 | Cn1nc(C2CC2)c2c1OCC1COCC1Nc1nc(ncc1C(F)(F)F)N2 [Ex-1.6, (10aS,13aS)- or (10aR,13aR)-3-cyclopropyl-1-methyl-8-(trifluoromethyl)-1,4,10a,11,13a,14-hexahydro-10H,13H-5,9-(azeno)furo[3,4-k]pyrazolo[3,4-b][1]oxa[4,6,10]triazacyclotridecine] | 6.92 | 
7 | Cc1nn(C2CCC2)c2c1OC[C@@H]1CN(C[C@H]1C)c1nc(ncc1C(F)(F)F)N2 (single isomer, unassigned) [Ex-20.2, (6S,7S)- or (6R,7R)-1-Cyclobutyl-3,7-dimethyl-11-(trifluoromethyl)-1,5,6,7,8,15-hexahydro-10,14-(azeno)-6,9-methanopyrazolo[4,3-b][1]oxa[4,6,10]triazacyclotetradecine] | 9.39 | 
8 | Cc1nn(C2CCC2)c2c1OC[C@@H]1COC[C@H]1Nc1nc(ncc1Cl)N2 [Ex-2.49, (10aS,13aS)-8-chloro-3-cyclobutyl-1-methyl-3,4,10a,11,13a,14-hexahydro-10H,13H-5,9-(azeno)furo[3,4-k]pyrazolo[4,3-b][1]oxa[4,6,10]triazacyclotridecine] | >10.09 | 
9 | CC(C)c1nn(C2CS(=O)(=O)C2)c2c1Nc1ncc(C(F)(F)F)c(n1)N[C@@H]1CC[C@H]1CO2 [Ex-10.1, 3-((10aR,12aR)-3-isopropyl-8-(trifluoromethyl)-10,10a,11,12,12a,13-hexahydro-5,9-(azeno)cyclobuta[k]pyrazolo[3,4-b][1]oxa[4,6,10]triazacyclotridecin-1 (4H)-yl) thietane 1,1-dioxide] | >10.09 | 
10 | Cc1nn(C)c2c1OCC1CC[C@H]1Nc1nc(ncc1C(F)(F)F)N2 (stereo partly drawn) [Ex-2.13, (10aR,12aS)- or (10aS,12aR)-1,3-dimethyl-8-(trifluoromethyl)-3,4,10,10a,11,12,12a,13-octahydro-5,9-(azeno)cyclobuta[k]pyrazolo[4,3-b][1]oxa[4,6,10]triazacyclotridecine] | >10.09 | 
11 | Cc1nn(C2CCC2)c2c1OCCC(C)Nc1nc(ncc1C(F)(F)F)N2 (single isomer, unassigned) [Ex-2.6, (R)- or (S)-1-cyclobutyl-3,7-dimethyl-10-(trifluoromethyl)-1,5,6,7,8,14-hexahydro-9,13-(azeno)pyrazolo[4,3-b][1]oxa[4,6,10]triazacyclotridecine] | 9.17 | 
12 | Cc1nn(C)c2c1CCC[C@@H](C)Nc1nc(ncc1C(F)(F)F)N2 (single isomer, unassigned) [Ex-11.2, (R)- or (S)-1,3,7-Trimethyl-10-(trifluoromethyl)-4,5,6,7,8,14-hexahydro-1H-9,13-(azeno)pyrazolo[4,3-l][1,3,7]triazacyclotridecine] |  | 3.16 nM
13 | Cc1nn(C2CCC2)c2c1CC[C@@H]1COC[C@H]1Nc1nc(ncc1C(F)(F)F)N2 (single isomer, unassigned) [Ex-12.2, (10aS,13aS)- or (10aR,13aR)-3-Cyclobutyl-1-methyl-8-(trifluoromethyl)-3,4,10a,11,13,13a,14,15-octahydro-10H-5,9-(azeno)furo[3,4-h]pyrazolo[4,3-l][1,3,7]triazacyclotridecine] |  | 0.24 nM
14 | Cc1nn(C)c2c1Nc1ncc(C(F)(F)F)c(n1)N[C@H](C)CCO2 [Ex-1.4, (R)-1,3,11-trimethyl-8-(trifluoromethyl)-1,4,10,11,12,13-hexahydro-5,9-(azeno)pyrazolo[3,4-b][1]oxa[4,6,10]triazacyclotridecine] | 8.93 | 
15 | Cc1nn(C)c2c1OCC1(CC1)CNc1nc(ncc1C(F)(F)F)N2 [Ex-2.5, 1′,3′-dimethyl-10′-(trifluoromethyl)-1′,7′,8′,14′-tetrahydro-5′H-spiro[cyclopropane-1,6′-[9,13](azeno)pyrazolo[4,3-b][1]oxa[4,6,10]triazacyclotridecine]] | >10.09 | 
16 | Cc1nn(C2CC2)c2c1OC[C@@H]1CC[C@H]1Nc1nc(ncc1C(F)(F)F)N2 [Ex-2.68, (10aR,12aR)-3-cyclopropyl-1-methyl-8-(trifluoromethyl)-3,4,10,10a,11,12,12a,13-octahydro-5,9-(azeno)cyclobuta[k]pyrazolo[4,3-b][1]oxa[4,6,10]triazacyclotridecine] | >10.09 | 
17 | OCc1nn(C2CCC2)c2c1OC[C@@H]1COC[C@H]1Nc1nc(ncc1C(F)(F)F)N2 [Ex-6.6, ((10aS,13aS)-3-cyclobutyl-8-(trifluoromethyl)-3,4,10a,11,13a,14-hexahydro-10H,13H-5,9-(azeno)furo[3,4-k]pyrazolo[4,3-b][1]oxa[4,6,10]triazacyclotridecin-1-yl)methanol] | >10.09 | 
18 | Cc1nn(C2CCC2)c2c1OC[C@@H]1COCC[C@H]1Nc1nc(ncc1C(F)(F)F)N2 [Ex-2.33, (4aR,16aS)- or (4aS,16aR)-12-cyclobutyl-14-methyl-7-(trifluoromethyl)-3,4,4a,5,11,12,16,16a-octahydro-1H-6,10-(azeno)pyrano[4,3-k]pyrazolo[4,3-b][1]oxa[4,6,10]triazacyclotridecine] | 9.11 | 
19 | CC(C)c1nn(C(C)(C)C#N)c2c1Nc1ncc(C3CC3)c(n1)N[C@@H]1COC[C@H]1CO2 [Ex-1.15, 2-((10aS,13aS)-8-cyclopropyl-3-isopropyl-10a,11,13a,14-tetrahydro-10H,13H-5,9-(azeno)furo[3,4-k]pyrazolo[3,4-b][1]oxa[4,6,10]triazacyclotridecin-1(4H)-yl)-2-methylpropanenitrile] | 8.27 | 
20 | Cc1cnc2c(c1)Nc1ncc(C(F)(F)F)c(n1)N[C@@H]1COC[C@H]1CO2 [Ex-15.3, (11aS,14aS)-3-methyl-9-(trifluoromethyl)-11a,12,14a,15-tetrahydro-5H,11H,14H6,10-(azeno)furo[3,4-k]pyrido[2,3-b][1]oxa[4,6,10]triazacyclotridecine] | 9.15 | 
21 | (R)- or (S)-1-cyclopropyl-3,7-dimethyl-10- (trifluoromethyl)-1,5,6,7,8,14-hexahydro- 9,13-(azeno)pyrazolo[4,3- b][1]oxa[4,6,10]triazacyclotridecine [Ex-2.20] | 6.71 | 
